Source: ChEMBL document CHEMBL1828530, “Quinonoid and phenazine compounds: synthesis and evaluation against H37Rv, rifampicin and isoniazid-resistance strains of Mycobacterium tuberculosis” (Eur J Med Chem, 2011)
≈ marks a conversion by molar mass, not a printed value.

How the values were obtained:
[1] = system: Mycobacterium tuberculosis; experiment: Antitubercular activity against rifampicin-resistant Mycobacterium tuberculosis ATCC 35338 harboring His-526-Tri mutation in rpoB gene after 9 days by resazurin reduction assay; assay type: functional
[2] = system: Mycobacterium tuberculosis; experiment: Antitubercular activity against isoniazid-resistant Mycobacterium tuberculosis ATCC 35822 harboring Ser-315-Tri mutation in katG gene after 9 days by resazurin reduction assay; assay type: functional

SMILES | MIC [1] [µM] | MIC [2] [µM]
CC(C)CCC1=C(O)C(=O)c2ccccc2C1=O | 205 (≈ 50.1 µg/mL) | 205 (≈ 50.1 µg/mL)
CC(C)CC1=C(O)C(=O)c2ccccc2C1=O | 108.7 (≈ 25 µg/mL) | 217.4 (≈ 50.1 µg/mL)
CC(C)CC1=C(O)C(=O)C2=C(CCCC2)C1=O | 53.35 (≈ 12.5 µg/mL) | 106.7 (≈ 25 µg/mL)
CCCC1=C(O)C(=O)c2ccccc2C1=O | 231.25 (≈ 50 µg/mL) | 462.5 (≈ 100 µg/mL)
CCCC1=C(O)C(=O)C2=C(CCCC2)C1=O | 113.5 (≈ 25 µg/mL) | 113.5 (≈ 25 µg/mL)
CC(C)=CCC1=C(OC2(CC=C(C)C)C(=O)c3ccccc3-c3nc4ccccc4nc32)C(=O)c2ccccc2C1=O (stereo not drawn) | 180.2 (≈ 99.9 µg/mL) | >180.2
CC(C)CCc1c2[nH]c3ccccc3nc-2c2ccccc2c1=O | 39.5 (≈ 12.5 µg/mL) | 39.5 (≈ 12.5 µg/mL)
CC(C)CCc1c2[nH]c3ccccc3nc-2c2c(c1=O)CCCC2 | 39.1 (≈ 12.5 µg/mL) | >312.5
CC(C)CCC1=C(OC2(CCC(C)C)C(=O)c3ccccc3-c3nc4ccccc4nc32)C(=O)c2ccccc2C1=O (stereo not drawn) | >178.9 | >178.9
CC(C)CCC1=C(OC2(CCC(C)C)C(=O)C3=C(CCCC3)c3nc4ccccc4nc32)C(=O)C2=C(CCCC2)C1=O (stereo not drawn) | 176.4 (≈ 100 µg/mL) | >176.4
CC(C)=Cc1c2[nH]c3ccccc3nc-2c2ccccc2c1=O | 83.3 (≈ 25 µg/mL) | 83.3 (≈ 25 µg/mL)
CC(C)Cc1c2[nH]c3ccccc3nc-2c2ccccc2c1=O | >331.1 | >331.1
CC(C)Cc1c2[nH]c3ccccc3nc-2c2c(c1=O)CCCC2 | >326.8 | >326.8
CC(C)CC1=C(OC2(CC(C)C)C(=O)c3ccccc3-c3nc4ccccc4nc32)C(=O)c2ccccc2C1=O (stereo not drawn) | >188.3 | >188.3
CC(C)CC1=C(OC2(CC(C)C)C(=O)C3=C(CCCC3)c3nc4ccccc4nc32)C(=O)C2=C(CCCC2)C1=O (stereo not drawn) | 46.4 (≈ 25 µg/mL) | 46.4 (≈ 25 µg/mL)
C=CCC1=C(O)C(=O)c2ccccc2C1=O | 116.8 (≈ 25 µg/mL) | 467.3 (≈ 100 µg/mL)
C=CCc1c2[nH]c3ccccc3nc-2c2ccccc2c1=O | 174.8 (≈ 50.1 µg/mL) | 43.7 (≈ 12.5 µg/mL)
C=CCC1=C(OC2(CC=C)C(=O)c3ccccc3-c3nc4ccccc4nc32)C(=O)c2ccccc2C1=O (stereo not drawn) | >200.8 | >200.8
CCCC1=C(OC2(CCC)C(=O)c3ccccc3-c3nc4ccccc4nc32)C(=O)c2ccccc2C1=O (stereo not drawn) | >198.8 | >198.8
CCCC1=C(OC2(CCC)C(=O)C3=C(CCCC3)c3nc4ccccc4nc32)C(=O)C2=C(CCCC2)C1=O (stereo not drawn) | 195.7 (≈ 99.9 µg/mL) | >195.7
CC(C)CCC1=C(O)C(=O)C2=C(CCCC2)C1=O | 50.4 (≈ 12.5 µg/mL) | 100.8 (≈ 25 µg/mL)
CC(C)=CC1=C(O)C(=O)c2ccccc2C1=O | 13.7 (≈ 3.13 µg/mL) | 438.6 (≈ 100 µg/mL)
NNC(=O)c1ccncc1 [ISONIAZID] |  | 1.45 (≈ 0.199 µg/mL)
CC(C)=CCC1=C(O)C(=O)c2ccccc2C1=O [LAPACHOL] | 206.6 (≈ 50.1 µg/mL) | 413.2 (≈ 100 µg/mL)
CO[C@H]1/C=C/O[C@@]2(C)Oc3c(C)c(O)c4c(O)c(c(/C=N/N5CCN(C)CC5)c(O)c4c3C2=O)NC(=O)/C(C)=C\C=C\[C@H](C)[C@H](O)[C@@H](C)[C@@H](O)[C@@H](C)[C@H](OC(C)=O)[C@@H]1C [RIFAMPIN] | 2.43 (≈ 2 µg/mL) | 
